The term IC50 denotes the concentration at which inhibition is half-maximal.

The target of one assay is T1, Human Calpain 1/NS1 (Homo sapiens, UniProt P07384).
T1 sequence (P07384 1-714): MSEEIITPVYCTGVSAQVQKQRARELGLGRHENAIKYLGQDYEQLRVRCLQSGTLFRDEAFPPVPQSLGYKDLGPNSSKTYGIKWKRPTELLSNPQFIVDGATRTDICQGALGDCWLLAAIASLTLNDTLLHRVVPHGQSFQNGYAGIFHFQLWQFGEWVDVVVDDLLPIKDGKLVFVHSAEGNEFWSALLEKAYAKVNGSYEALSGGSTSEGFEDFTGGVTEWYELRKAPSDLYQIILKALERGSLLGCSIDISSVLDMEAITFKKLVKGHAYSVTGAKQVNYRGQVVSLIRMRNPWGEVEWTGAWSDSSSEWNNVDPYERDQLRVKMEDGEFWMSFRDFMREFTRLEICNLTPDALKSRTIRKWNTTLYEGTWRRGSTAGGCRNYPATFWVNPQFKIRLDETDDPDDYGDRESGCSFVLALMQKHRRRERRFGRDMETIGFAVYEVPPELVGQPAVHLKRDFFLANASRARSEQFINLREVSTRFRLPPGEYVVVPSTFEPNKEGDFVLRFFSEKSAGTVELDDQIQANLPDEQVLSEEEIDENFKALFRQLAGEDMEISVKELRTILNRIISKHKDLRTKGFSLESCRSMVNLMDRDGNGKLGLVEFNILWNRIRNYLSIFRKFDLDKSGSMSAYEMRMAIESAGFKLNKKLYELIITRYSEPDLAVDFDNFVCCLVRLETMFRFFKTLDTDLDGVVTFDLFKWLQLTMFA
T1 sequence (P04632 1-268 partner): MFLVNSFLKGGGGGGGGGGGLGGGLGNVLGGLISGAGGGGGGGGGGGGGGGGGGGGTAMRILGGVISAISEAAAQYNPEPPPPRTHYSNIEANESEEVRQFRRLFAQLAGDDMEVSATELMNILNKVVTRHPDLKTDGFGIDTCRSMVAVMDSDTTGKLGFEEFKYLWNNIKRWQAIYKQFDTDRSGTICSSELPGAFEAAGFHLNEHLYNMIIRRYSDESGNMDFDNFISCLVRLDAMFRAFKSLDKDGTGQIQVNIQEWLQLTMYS
As to the kind of experiment: Calpain inhibition, continuous fluorescence (FRET substrate) assay, calpain 1. It counts as biochemical. As to conditions: SensoLyte 520 FRET substrate, 25C. The method in brief: (§1)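 Calpains preincubated with serially diluted inhibitors at 25 °C in 50 mM Tris pH 7.5, 100 mM NaCl, 1 mM DTT; CaCl2 plus 5-FAM/QXL 520 FRET substrate started the reaction. Fluorescence (490/520 nm) read 10 min; rates from 1-5 min slopes, IC50 from 4-parameter logistic fit.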

A further assay deals with T2, Human Calpain 2/NS1 (Homo sapiens, UniProt P17655).
T2 sequence (P17655 1-700): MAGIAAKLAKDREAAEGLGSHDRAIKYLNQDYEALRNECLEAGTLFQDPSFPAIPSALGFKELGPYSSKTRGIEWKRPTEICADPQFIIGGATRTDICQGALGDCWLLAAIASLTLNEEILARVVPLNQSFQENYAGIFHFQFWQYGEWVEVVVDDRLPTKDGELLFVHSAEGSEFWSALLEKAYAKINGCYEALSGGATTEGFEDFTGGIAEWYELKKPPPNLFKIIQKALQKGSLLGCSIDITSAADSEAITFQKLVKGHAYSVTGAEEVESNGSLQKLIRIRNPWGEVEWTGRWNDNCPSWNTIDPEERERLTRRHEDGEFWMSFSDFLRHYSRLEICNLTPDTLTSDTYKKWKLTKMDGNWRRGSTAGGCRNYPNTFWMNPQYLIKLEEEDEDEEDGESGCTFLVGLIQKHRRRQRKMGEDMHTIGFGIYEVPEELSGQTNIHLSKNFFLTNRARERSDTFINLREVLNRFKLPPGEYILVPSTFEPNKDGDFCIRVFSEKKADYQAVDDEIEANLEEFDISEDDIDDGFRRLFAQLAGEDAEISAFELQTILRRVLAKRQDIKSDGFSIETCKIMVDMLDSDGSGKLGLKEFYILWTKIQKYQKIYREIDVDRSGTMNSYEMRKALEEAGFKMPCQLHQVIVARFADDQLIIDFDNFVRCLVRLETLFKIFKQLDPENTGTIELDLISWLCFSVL
T2 sequence (P04632 1-268 partner): T1 sequence (P04632 1-268 partner)
Nature of the assay: Calpain inhibition, continuous fluorescence (FRET substrate) assay, calpain 2. It is filed as biochemical. Conditions: SensoLyte 520 FRET substrate, 25C. The gist of the method: as §1

Assay [1] deals with Calpain activity in SH-SY5Y cells. Nature of the assay: SH-SY5Y spectrin breakdown product (SBDP-150) western blot assay. Conditions: Homo sapiens, read-out: SH-SY5Y Spectrin IC50. It counts as cell-based. On the technique in general: A western blot detects proteins with antibodies after separation by electrophoresis.
The test system is the same in assay [2]. As to the kind of experiment: SH-SY5Y Suc-LLVY-AMC fluorescence assay. It is filed as cell-based. As to conditions: Homo sapiens, read-out: SH-SY5Y + AMC IC50.
The next assay deals with T3, Human Calpain 9/NS1 (Homo sapiens, UniProt O14815).
T3 sequence (O14815 1-690): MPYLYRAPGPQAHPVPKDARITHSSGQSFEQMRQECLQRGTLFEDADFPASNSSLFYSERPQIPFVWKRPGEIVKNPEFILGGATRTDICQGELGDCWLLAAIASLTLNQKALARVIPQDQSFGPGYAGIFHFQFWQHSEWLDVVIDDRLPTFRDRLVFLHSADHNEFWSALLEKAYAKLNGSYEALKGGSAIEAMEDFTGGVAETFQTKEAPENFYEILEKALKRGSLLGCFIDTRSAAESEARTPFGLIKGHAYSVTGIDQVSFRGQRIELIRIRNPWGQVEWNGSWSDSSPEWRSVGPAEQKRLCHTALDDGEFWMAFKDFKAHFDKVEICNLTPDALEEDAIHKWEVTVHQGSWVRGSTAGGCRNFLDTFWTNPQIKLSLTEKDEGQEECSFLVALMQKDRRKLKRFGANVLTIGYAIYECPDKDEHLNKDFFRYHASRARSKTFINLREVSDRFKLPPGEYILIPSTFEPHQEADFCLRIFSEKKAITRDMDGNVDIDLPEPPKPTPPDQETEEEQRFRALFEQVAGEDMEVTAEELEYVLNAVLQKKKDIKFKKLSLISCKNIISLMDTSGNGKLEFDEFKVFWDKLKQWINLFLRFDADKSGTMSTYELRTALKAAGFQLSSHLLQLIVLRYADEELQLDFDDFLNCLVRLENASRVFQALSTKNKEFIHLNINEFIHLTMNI
T3 sequence (P04632 1-268 partner): T1 sequence (P04632 1-268 partner)
Nature of the assay: Calpain inhibition, continuous fluorescence (FRET substrate) assay, calpain 9. As to conditions: SensoLyte 520 FRET substrate, 25C. It is filed as biochemical. The gist of the method:
as §1

The mark [3] stands for this setting: SH-SY5Y cells, 25 uM A23187, SBDP-150 western blot.
[4] abbreviates: SH-SY5Y cells, 100 uM Suc-LLVY-AMC.

With `Cn1cc(C(=O)NC(Cc2ccccc2)C(=O)C(N)=O)c(-c2cccc3scnc23)n1` (centres unmarked) [Compound 51, N-(4-AMINO-3,4-DIOXO-1-PHENYLBUTAN-2-YL)-3-(BENZO[D]THIAZOL-4-YL)-1-METHYL-1H-PYRAZOLE-4-CARBOXAMIDE], the IC50 on Human Calpain 1/NS1 is less than 3 µM; at Human Calpain 2/NS1, less than 3 µM; in assay [1] (setting [3]), 10 to 25 µM; in assay [2] (setting [4]), greater than 25 µM; against Human Calpain 9/NS1 it was less than 3 µM.

For `NC(=O)C(=O)C(Cc1ccccc1)NC(=O)c1nsnc1-c1coc(Cl)c1` (centres unmarked) [Compound 52, N-(4-AMINO-3,4-DIOXO-1-PHENYLBUTAN-2-YL)-4-(5-CHLOROFURAN-3-YL)-1,2,5-THIADIAZOLE-3-CARBOXAMIDE], the IC50 against Human Calpain 1/NS1 was less than 3 µM; on Human Calpain 2/NS1, less than 3 µM; in assay [1] (setting [3]), 10 to 25 µM; in assay [2] (setting [4]), greater than 25 µM; against Human Calpain 9/NS1 it was less than 3 µM.

Regarding `Cn1cc(C(=O)NC(Cc2ccccc2)C(=O)C(N)=O)c(-c2cccc3ccncc23)n1` (centres unmarked) [Compound 54], the IC50 was less than 3 µM against Human Calpain 1/NS1; less than 3 µM at Human Calpain 2/NS1; greater than 25 µM in assay [1] (setting [3]); greater than 25 µM in assay [2] (setting [4]); less than 3 µM at Human Calpain 9/NS1.

With `Cc1cc(-c2nn(C)cc2C(=O)NC(Cc2ccccc2)C(=O)C(N)=O)c(C)o1` (centres unmarked) [Compound 55, N-(4-AMINO-3,4-DIOXO-1-PHENYLBUTAN-2-YL-3-(2,5-DIMETHYLFURAN-3-YL)-1-METHYL-1H-PYRAZOLE-4-CARBOXAMIDE], the IC50 at Human Calpain 1/NS1 was less than 3 µM; on Human Calpain 2/NS1, less than 3 µM; in assay [1] (setting [3]), greater than 25 µM; in assay [2] (setting [4]), less than 10 µM; on Human Calpain 9/NS1, less than 3 µM.

For `O=C(NC(Cc1ccccc1)C(=O)Nc1ncco1)c1nsnc1-c1ccccc1` (centres unmarked) [Compound 57, N-(1-(OXAZOL-2-YLAMINO)-1-OXO-3-PHENYLPROPAN-2-YL)-4-PHENYL-1,2,5-THIADIAZOLE-3-CARBOXAMIDE], the IC50 against Human Calpain 1/NS1 was greater than 10 µM; against Human Calpain 2/NS1, greater than 10 µM; in assay [1] (setting [3]) it was greater than 25 µM; in assay [2] (setting [4]), greater than 25 µM; against Human Calpain 9/NS1, greater than 10 µM.

In the case of `Cc1nc(-c2cccc3ccccc23)c(C(=O)NC(Cc2ccccc2)C(=O)C(N)=O)o1` (centres unmarked) [Compound 58, N-(4-AMINO-3,4-DIOXO-1-PHENYLBUTAN-2-YL)-2-METHYL-4-(NAPHTHALEN-1-YL)OXAZOLE-5-CARBOXAMIDE], the IC50 at Human Calpain 1/NS1 is less than 3 µM; against Human Calpain 2/NS1, less than 3 µM; in assay [1] (setting [3]), less than 10 µM; in assay [2] (setting [4]), less than 10 µM; on Human Calpain 9/NS1, less than 3 µM.

Consider `Cc1cc(C(=O)NC(Cc2ccccc2)C(=O)C(N)=O)nn1-c1nccc(-c2ccccc2)n1` (centres unmarked) [Compound 59, N-(4-AMINO-3,4-DIOXO-1-PHENYLBUTAN-2-YL)-5-METHYL-1-(4-PHENYLPYRIMIDIN-2-YL)-1H-PYRAZOLE-3-CARBOXAMIDE], for which the IC50 on Human Calpain 1/NS1 was greater than 10 µM; at Human Calpain 2/NS1, 3 to 10 µM; in assay [1] (SH-SY5Y), greater than 25 µM; in assay [2] (SH-SY5Y) it was less than 10 µM; at Human Calpain 9/NS1 it was greater than 10 µM.

With `O=C(O)C(=O)C(Cc1ccccc1)NC(=O)c1cn(C2CC2)nc1-c1ccccc1` (centres unmarked) [Compound 60, 3-(1-CYCLOPROPYL-3-PHENYL-1H-PYRAZOLE-4-CARBOXAMIDO)-2-OXO-4-PHENYLBUTANOIC ACID], the IC50 on Human Calpain 1/NS1 is less than 3 µM; on Human Calpain 2/NS1, less than 3 µM; in assay [1] (setting [3]), 10 to 25 µM; in assay [2] (setting [4]) it was 10 to 25 µM; at Human Calpain 9/NS1 it was less than 3 µM.

With `Cn1cc2c(-c3nn(C(F)F)cc3C(=O)NC(Cc3ccccc3)C(=O)C(N)=O)cccc2n1` (centres unmarked) [Compound 61, N-(4-AMINO-3,4-DIOXO-1-PHENYLBUTAN-2-YL)-1-(DIFLUOROMETHYL)-3-(2-METHYL-2H-INDAZOL-4-YL)-1H-PYRAZOLE-4-CARBOXAMIDE], the IC50 against Human Calpain 1/NS1 is less than 3 µM; against Human Calpain 2/NS1, less than 3 µM; in assay [1] (setting [3]) it was less than 10 µM; in assay [2] (setting [4]) it was less than 10 µM; on Human Calpain 9/NS1, less than 3 µM.

As to `Cn1ncc2c(-c3nn(C(F)F)cc3C(=O)NC(Cc3ccccc3)C(=O)C(N)=O)cccc21` (centres unmarked) [Compound 62, N-(4-AMINO-3,4-DIOXO-1-PHENYLBUTAN-2-YL)-1-(DIFLUOROMETHYL)-3-(1-METHYL-1H-INDAZOL-4-YL)-1H-PYRAZOLE-4-CARBOXAMIDE], the IC50 at Human Calpain 1/NS1 was less than 3 µM; against Human Calpain 2/NS1 it was less than 3 µM; in assay [1] (setting [3]), less than 10 µM; in assay [2] (setting [4]) it was less than 10 µM; against Human Calpain 9/NS1, less than 3 µM.

Regarding `NC(=O)C(=O)C(Cc1ccccc1)NC(=O)c1cn(C(F)F)nc1-c1ncnc2ccccc12` (centres unmarked) [Compound 63, N-(4-AMINO-3,4-DIOXO-1-PHENYLBUTAN-2-YL)-1-(DIFLUOROMETHYL)-3-(QUINAZOLIN-4-YL)-1H-PYRAZOLE-4-CARBOXAMIDE], the IC50 is less than 3 µM against Human Calpain 1/NS1; less than 3 µM at Human Calpain 2/NS1; 10 to 25 µM in assay [1] (setting [3]); less than 10 µM in assay [2] (setting [4]); less than 3 µM on Human Calpain 9/NS1.

Turning to `Cc1nc(-c2ccccc2F)c(C(=O)NC(Cc2ccccc2)C(=O)C(=O)O)o1` (centres unmarked) [Compound 64, 3-(4-(2-FLUOROPHENYL)-2-METHYLOXAZOLE-5-CARBOXAMIDO)-2-OXO-4-PHENYLBUTANOIC ACID], the half-inhibitory concentration (IC50) against Human Calpain 1/NS1 is less than 3 µM; against Human Calpain 2/NS1, less than 3 µM; in assay [1] (setting [3]) it was greater than 25 µM; in assay [2] (setting [4]), less than 10 µM; against Human Calpain 9/NS1 it was less than 3 µM.

Consider `Cn1cc(C(=O)NC(Cc2ccccc2)C(=O)C(=O)O)c(-c2ccccc2F)n1` (centres unmarked) [Compound 65, 3-(3-(2-FLUOROPHENYL)-1-METHYL-1H-PYRAZOLE-4-CARBOXAMIDO)-2-OXO-4-PHENYLBUTANOIC ACID], for which the IC50 at Human Calpain 1/NS1 is less than 3 µM; at Human Calpain 2/NS1, less than 3 µM; in assay [1] (setting [3]) it was greater than 25 µM; in assay [2] (setting [4]), less than 10 µM; on Human Calpain 9/NS1, less than 3 µM.
